Consider 20 compounds from patent US12540131B2 (Merck Sharp & Dohme LLC, priority 2019, dated 2026).

For the first experiment, the target named is GST tagged truncated human mutant G2019S LRRK2 (Homo sapiens (Human), UniProt Q5S007, G2019S). Description: LRRK2 Km ATP LanthaScreen Assay. The format is biochemical. As to conditions: G2019S LRRK2, 134 μM ATP (Km ATP), mean values. On the procedure: General Experimental Information: • Unless otherwise noted, all reactions are magnetically stirred. Unless otherwise noted, when diethyl ether is used in the experiments described below, it is Fisher ACS certified material and is stabilized with BHT. Unless otherwise noted, “concentrated” and/or “solvent removed under reduced pressure” means evaporating the solvent from a solution or mixture using a rotary evaporator or vacuum pump. Unless otherwise noted, flash chromatography is carried out on a Teledyne Isco (Lincoln, NE), Analogix (Burlington, WI), or Biotage (Stockholm, SWE) automated chromatography system using a commercially available cartridge as the column. Columns may be purchased from Teledyne Isco, Analogix, Biotage, Varian (Palo Alto, CA), or Supelco (Bellefonte, PA) and are usually filled with silica gel as the stationary phase. Reverse phase prep-HPLC conditions, where used, can be found at the end of each experimental section. Aqueous solutions were concentrated on a Genevac (Ipswich, ENG) or by freeze-drying/lyophilization. Unless otherwise noted, all LRRK2 pIC50 data presented in tables refers to the LRRK2 G2019S Km ATP LanthaScreen™ assay (Life Technologies Corp., Carlsbad, CA) that is described in the Biological Assay section.
Sequence of GST tagged truncated human mutant G2019S LRRK2 (Q5S007 970-2527 G2019S): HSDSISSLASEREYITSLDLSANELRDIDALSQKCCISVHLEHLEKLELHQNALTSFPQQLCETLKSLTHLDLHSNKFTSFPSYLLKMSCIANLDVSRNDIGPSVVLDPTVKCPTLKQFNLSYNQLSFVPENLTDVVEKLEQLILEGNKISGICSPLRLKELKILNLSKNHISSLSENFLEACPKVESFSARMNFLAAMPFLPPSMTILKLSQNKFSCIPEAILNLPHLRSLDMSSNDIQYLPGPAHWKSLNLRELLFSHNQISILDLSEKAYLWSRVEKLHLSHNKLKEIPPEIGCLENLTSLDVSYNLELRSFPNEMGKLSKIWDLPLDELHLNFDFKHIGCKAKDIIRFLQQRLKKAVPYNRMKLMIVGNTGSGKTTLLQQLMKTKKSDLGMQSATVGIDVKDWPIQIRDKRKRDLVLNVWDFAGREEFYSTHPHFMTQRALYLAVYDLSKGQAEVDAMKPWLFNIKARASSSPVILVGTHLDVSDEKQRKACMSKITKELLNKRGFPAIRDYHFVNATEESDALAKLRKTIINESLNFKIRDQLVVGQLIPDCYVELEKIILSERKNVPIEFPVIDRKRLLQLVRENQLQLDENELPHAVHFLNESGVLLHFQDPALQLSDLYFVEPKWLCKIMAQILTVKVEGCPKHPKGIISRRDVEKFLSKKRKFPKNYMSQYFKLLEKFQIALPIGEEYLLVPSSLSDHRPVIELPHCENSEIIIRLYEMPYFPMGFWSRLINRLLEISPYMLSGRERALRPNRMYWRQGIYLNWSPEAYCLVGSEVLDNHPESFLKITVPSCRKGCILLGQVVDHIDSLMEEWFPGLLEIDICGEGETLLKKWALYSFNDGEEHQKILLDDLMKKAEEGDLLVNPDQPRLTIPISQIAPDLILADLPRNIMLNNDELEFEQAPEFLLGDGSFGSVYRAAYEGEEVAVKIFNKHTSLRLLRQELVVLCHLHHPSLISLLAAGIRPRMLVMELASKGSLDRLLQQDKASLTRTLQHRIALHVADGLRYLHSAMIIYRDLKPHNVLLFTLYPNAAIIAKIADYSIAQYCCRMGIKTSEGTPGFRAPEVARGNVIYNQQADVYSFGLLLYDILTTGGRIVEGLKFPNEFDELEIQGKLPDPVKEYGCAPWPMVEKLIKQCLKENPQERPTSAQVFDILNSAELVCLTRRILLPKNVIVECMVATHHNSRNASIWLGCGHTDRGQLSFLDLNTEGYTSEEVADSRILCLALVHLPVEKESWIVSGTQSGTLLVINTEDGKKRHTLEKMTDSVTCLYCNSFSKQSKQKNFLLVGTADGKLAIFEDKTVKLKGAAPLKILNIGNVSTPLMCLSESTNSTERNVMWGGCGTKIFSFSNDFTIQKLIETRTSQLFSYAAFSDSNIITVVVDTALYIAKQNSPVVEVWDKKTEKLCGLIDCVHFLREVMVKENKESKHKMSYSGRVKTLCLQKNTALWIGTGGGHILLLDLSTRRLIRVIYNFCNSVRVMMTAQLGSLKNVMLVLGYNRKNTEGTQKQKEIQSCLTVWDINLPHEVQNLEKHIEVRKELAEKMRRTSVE
The pIC50 values reported herein were measured as follows.
Biological Assay: LRRK2 Km ATP LanthaScreen™ Assay
Compound potency against LRRK2 kinase activity was determined using LanthaScreen™ technology from Life Technologies Corporation (Carlsbad, CA) using a GST20 tagged truncated human mutant G2019S LRRK2 in the presence of the fluorescein-labeled peptide substrate LRRKtide® (LRRK2 phosphorylated ezrin/radixin/moesin (ERM)), also from Life Technologies. The data presented for the Km ATP LanthaScreen™ Assay represents mean IC50 values based on several test results and may have reasonable deviations depending on the specific conditions and reagents used. Km is the Michaelis constant of an enzyme and is defined as the concentration of native substrate (ATP for a kinase) which permits the enzyme to achieve half Vmax (Vmax=rate of reaction when the enzyme is saturated with substrate). IC50 (half-maximal inhibitory concentration) represents the concentration of inhibitor required to inhibit LRRK2 kinase activity by 50%. Assays were performed in the presence of 134 μM ATP (Km ATP). Upon completion, the assay was stopped, and phosphorylated substrate detected with a terbium (Tb)-labeled anti-pERM antibody (cat. no. PV4898). The compound dose response was prepared by diluting a 10 mM stock of compound to a maximum concentration of 9.99 μM in 100% DMSO, followed by custom fold serial dilution in DMSO nine times. 20 nL of each dilution was spotted via a Labcyte Echo onto a 384-well black-sided plate (Corning 3575) followed by 15 μl of a 1.25 nM enzyme solution in 1× assay buffer (50 mM Tris pH 8.5, 10 mM MgCl2, 0.01% Brij-35, 1 mM EGTA, 2 mM dithiothreitol, 0.05 mM sodium orthovanadate). Following a 15-minute incubation period at RT, the kinase reaction was started with the addition of 5 μl of 400 nM fluorescein-labeled LRRKtide® (LRRK2 phosphorylated ezrin/radixin/moesin (ERM)) peptide substrate and 134 μM ATP solution in 1× assay buffer. The reaction was allowed to progress at ambient temperature for 90 minutes. The reaction was then stopped by the addition of 20 μl of TR-FRET Dilution Buffer (Life Technologies, Carlsbad, CA) containing 2 nM Tb-labeled anti-phospho LRRKtide® (LRRK2 phosphorylated ezrin/radixin/moesin (ERM)) antibody and 10 mM EDTA (Life Technologies, Carlsbad, CA). After an incubation period of 1 h at RT, the plate was read on an EnVision® multimode plate reader (Perkin Elmer, Waltham, MA) with an excitation wavelength of 337 nm (Laser) and a reading emission at both 520 and 495 nm. Compound IC50 values were interpolated from nonlinear regression best-fits of the log of the final compound concentration, plotted as a function of the 520/495-nm emission ratio using activity base “Abase”). […]
On the technique in general: Time-resolved FRET reads energy transfer from a long-lived donor to a nearby acceptor.
Consider `O=S1(=O)CC(N2CC[C@@H](c3cc4nc(Nc5cnn(C6CC6)c5Cl)ncc4cc3Cl)[C@H](F)C2)C1` (single isomer, unassigned), for which the “LRRK2 pIC50” value is 8.52. As to `O=S1(=O)CC(N2CC[C@H](c3cc4nc(Nc5cnn(C6CC6)c5Cl)ncc4cc3Cl)[C@@H](F)C2)C1` (single isomer, unassigned), the “LRRK2 pIC50” value is given as 9.02. Regarding `Cc1c(Nc2ncc3cc(Cl)c(C4CCN(C5CC[C@H]5O)CC4)cc3n2)cnn1C1CC1` (single isomer, unassigned) [Ex-1.5, (1R,2S) or (1R,2R) or (1S,2S) or (1S,2R) 2-(4-(6-chloro-2-((1-cyclopropyl-5-methyl-1H-pyrazol-4-yl)amino)quinazolin-7-yl)piperidin-1-yl)cyclobutan-1-ol], the “LRRK2 pIC50” value was more than 9.20.

As to `Cc1c(Nc2ncc3cc(Cl)c(C4CCN(C5CC[C@@H]5O)CC4)cc3n2)cnn1C1CC1` (single isomer, unassigned) [Ex-1.6, (1R,2S) or (1R,2R) or (1S,2S) or (1S,2R) 2-(4-(6-chloro-2-((1-cyclopropyl-5-methyl-1H-pyrazol-4-yl)amino)quinazolin-7-yl)piperidin-1-yl)cyclobutan-1-ol], the “LRRK2 pIC50” value was more than 9.20.

On to `C[C@@]1(N2CCC(c3cc4nc(Nc5cnn(C6CC6)c5Cl)ncc4cc3Cl)CC2)COC[C@@H]1O` (single isomer, unassigned) [Ex-1.7, (3R,4R)- or (3S,4S)-4-(4-(6-chloro-2-((5-chloro-1-cyclopropyl-1H-pyrazol-4-yl)amino)quinazolin-7-yl)piperidin-1-yl)-4-methyltetrahydrofuran-3-ol], for which the “LRRK2 pIC50” value is reported as more than 9.20. In the case of `Cc1c(Nc2ncc3cc(Cl)c(C4CCN([C@@]5(C)COC[C@H]5O)CC4)cc3n2)cnn1C1CC1` (single isomer, unassigned) [Ex-1.15, (3S,4S) or (3R,4R) 4-(4-(6-chloro-2-((1-cyclopropyl-5-methyl-1H-pyrazol-4-yl)amino)quinazolin-7-yl)piperidin-1-yl)-4-methyltetrahydrofuran-3-ol], the “LRRK2 pIC50” value came out at 8.16.

Take `Cc1c(Nc2ncc3cc(Cl)c(C4CCN([C@]5(C)COC[C@@H]5O)CC4)cc3n2)cnn1C1CC1` (single isomer, unassigned) [Ex-1.16, (3S,4S) or (3R,4R) 4-(4-(6-chloro-2-((1-cyclopropyl-5-methyl-1H-pyrazol-4-yl)amino)quinazolin-7-yl)piperidin-1-yl)-4-methyltetrahydrofuran-3-ol]: the “LRRK2 pIC50” value is recorded as more than 9.20. The same measure, in the same setting: for `Cc1c(Nc2ncc3cc(Cl)c(C4CCN(C5(C)CCCC5O)CC4)cc3n2)cnn1C1CC1` (single isomer, unassigned) [Ex-1.19, (1R,2S) or (1S,2R) or (1S,2S) or (1R,2R) 2-(4-(6-chloro-2-((1-cyclopropyl-5-methyl-1H-pyrazol-4-yl)amino)quinazolin-7-yl)piperidin-1-yl)-2-methylcyclopentan-1-ol] the value was 7.59; for `Cc1c(Nc2ncc3cc(Cl)c(C4CCN(C5(C)CCCC5O)CC4)cc3n2)cnn1C1CC1` (single isomer, unassigned) [Ex-1.20, (1R,2S) or (1S,2R) or (1S,2S) or (1R,2R) 2-(4-(6-chloro-2-((1-cyclopropyl-5-methyl-1H-pyrazol-4-yl)amino)quinazolin-7-yl)piperidin-1-yl)-2-methylcyclopentan-1-ol], 8.84.

Still in this experiment, the particulars now being: G2019S LRRK2, 134 μM ATP (Km ATP), mean values; read-out: LRRK2 pIC50 (converted).
Take `O=S1(=O)CCC(N2CCC(c3cc4nc(Nc5cnn(CC(F)F)c5Cl)ncc4cc3Cl)CC2)C1` (racemic) [Ex-4.6, (S) and (R) 3-(4-(6-chloro-2-((5-chloro-1-(2,2-difluoroethyl)-1H-pyrazol-4-yl)amino)quinazolin-7-yl)piperidin-1-yl)tetrahydrothiophene 1,1-dioxide]: the IC50 is less than 0.631 nM. Regarding `CCn1ncc(Nc2ncc3cc(Cl)c(C4CC45CC5)cc3n2)c1C` (single isomer, unassigned) [Ex-1.1, (S) or (R) 6-chloro-N-(1-ethyl-5-methyl-1H-pyrazol-4-yl)-7-(spiro[2.2]pentan-1-yl)quinazolin-2-amine], the IC50 was 11.7 nM. Turning to `CCn1ncc(Nc2ncc3cc(Cl)c(C4CC45CC5)cc3n2)c1C` (single isomer, unassigned) [Ex-1.2, (S) or (R) 6-chloro-N-(1-ethyl-5-methyl-1H-pyrazol-4-yl)-7-(spiro[2.2]pentan-1-yl)quinazolin-2-amine], the IC50 is 186 nM. The same measure, in the same setting: for `CC(C)(O)CN1CCC(c2cc3nc(Nc4cnn(C5CC5)c4)ncc3cc2Cl)C1` (single isomer, unassigned) [Ex-1.4, (S) or (R) 1-(3-(6-chloro-2-((1-cyclopropyl-1H-pyrazol-4-yl)amino)quinazolin-7-yl)pyrrolidin-1-yl)-2-methylpropan-2-ol] the value was 24 nM; for `C[C@@]1(N2CCC(c3cc4nc(Nc5cnn(C6CC6)c5Cl)ncc4cc3Cl)CC2)COC[C@@H]1O` (single isomer, unassigned) [Ex-1.8, (3R,4R)- or (3S,4S)-4-(4-(6-chloro-2-((5-chloro-1-cyclopropyl-1H-pyrazol-4-yl)amino)quinazolin-7-yl)piperidin-1-yl)-4-methyltetrahydrofuran-3-ol], 1.55 nM; for `CC(C)(O)CN1CCC(c2cc3nc(Nc4cnn(C5CC5)c4)ncc3cc2Cl)C1` (single isomer, unassigned) [Ex-1.9, (S) or (R) 1-(3-{6-chloro-2-[(1-cyclopropyl-1H-pyrazol-4-yl)amino]quinazolin-7-yl}pyrrolidin-1-yl)-2-methylpropan-2-ol], 30.2 nM.

`CC(C)(O)CN1CCC(c2cc3nc(Nc4cnn(C5CC5)c4)ncc3cc2Cl)C1` (single isomer, unassigned) [Ex-1.10, (S) or (R) 1-(3-{6-chloro-2-[(1-cyclopropyl-1H-pyrazol-4-yl)amino]quinazolin-7-yl}pyrrolidin-1-yl)-2-methylpropan-2-ol]: the IC50 was 28.2 nM. Regarding `C[C@@H]1CC(c2cc3nc(Nc4cnn(C5CC5)c4Cl)ncc3cc2Cl)CCN1C1COC1` (single isomer, unassigned) [Ex-1.11, (S) or (R) 6-chloro-N-(5-chloro-1-cyclopropyl-1H-pyrazol-4-yl)-7-(2-methyl-1-(oxetan-3-yl)piperidin-4-yl)quinazolin-2-amine], the IC50 is less than 0.631 nM. As to `C[C@H]1CC(c2cc3nc(Nc4cnn(C5CC5)c4Cl)ncc3cc2Cl)CCN1C1COC1` (single isomer, unassigned) [Ex-1.12, (S) or (R) 6-chloro-N-(5-chloro-1-cyclopropyl-1H-pyrazol-4-yl)-7-(2-methyl-1-(oxetan-3-yl)piperidin-4-yl)quinazolin-2-amine], the IC50 was 0.741 nM. `Cc1c(Nc2ncc3cc(Cl)c(C4CCN(C5COC5)[C@H](C)C4)cc3n2)cnn1C1CC1` (single isomer, unassigned) [Ex-1.13, (S) or (R) 6-chloro-N-(1-cyclopropyl-5-methyl-1H-pyrazol-4-yl)-7-(2-methyl-1-(oxetan-3-yl)piperidin-4-yl)quinazolin-2-amine]: the IC50 was 0.776 nM. On the same count and under the same terms, for `Cc1c(Nc2ncc3cc(Cl)c(C4CCN(C5COC5)[C@@H](C)C4)cc3n2)cnn1C1CC1` (single isomer, unassigned) [Ex-1.14, (S) or (R) 6-chloro-N-(1-cyclopropyl-5-methyl-1H-pyrazol-4-yl)-7-(2-methyl-1-(oxetan-3-yl)piperidin-4-yl)quinazolin-2-amine] the value was less than 0.631 nM.
